Experimental data as given in US10196357B2, “Biaryl compositions and methods for modulating a kinase cascade” (Athenex, Inc., priority 2007, dated 2019).
Values joined by “and” are separate entries in the source; they are usually repeats but may differ in a detail not shown here. Equal values may be shown once. Read-outs that look alike come from different tables or passages of the source.

Key:
[1] = test system: lung cancer cell line A549; test: tumor growth inhibition, A549; format: cell-based, Human; details: Homo sapiens, A549, A549 (Lung) cells
Excerpt: (§1) Growth Inhibition. […] T1 values≤T0 values were designated as T, cytotoxicity.

[2] = body weight in GL261 glioma survival study; format: in vivo; details: Temodar 5 mg/kg, C57BL/6 mice
Method: (§2) A brain tumor mouse xenograft study was conducted comparing KX2-361 and KX2-391 (KXO1) to Temodar®. The studies were conducted in C57BL/6 mice. GL261 glioma cells (1×10^5 in 5 μl DMEM) were implanted intracranial coordinates: bregma, lateral 2.0 mm, anterior 1.2 mm, 3.0 mm depth dura. Treatment was initiated 3 days post implantation. The groups were as follows (all doses in 100 μl H2O):
FIGS. 49A-E show the weight gain in each of the C57BL/6 mice in the different treatment groups. The average weight at endpoint for each of the treatment groups is shown below in Table 30. FIG. 50 is a graph showing the average weights over a 40-day period for each of the treatment groups.

GL261 glioma cells = test: intracranial GL261 glioma survival study; format: in vivo, C57BL/6 mice; details: 5 mg/kg weekly ×1 oral; C57BL/6 mice, intracranial GL261
Method: as §2
The median survival range and the log-rank (Mantel-Cox) statistical test results comparing the survival distributions of the samples.

[3] = test system: wild-type aywl strain of HBV; test: HBV primary assay (HepG2-2.2.15 antiviral assay); format: cell-based; details: Test Concentration 1 μM
Method: The HBV primary assay developed was conducted similarly to that described by Korba et al., (Antiviral Res. 15: 217-228 (1991) and Antiviral Res. 19: 55-70 (1992)) with the exception that viral DNA detection and quantification have been improved and simplified (Korba et al., Antiviral Res. 19: 55-70 (1992)).
Compound 38 (KX2-377), Compound 136 (KX2-393), and Compound 137 (KX2-394) were evaluated for potential anti-HBV activity using a single high-test concentration of compounds in the standardized HepG2-2.2.15 antiviral assay. The HepG2-2.2.15 is a stable cell line producing high levels of the wild-type aywl strain of HBV. Briefly, HepG2-2.2.15 cells were plated in 96-well plates. Only the interior wells were utilized to reduce “edge effects” observed during cell culture; the exterior wells are filled with complete medium to help minimize sample evaporation. On the following day, the confluent monolayer of HepG2-2.2.15 cells was washed and the medium is replaced with complete medium containing test concentrations of a test article in triplicate. 3TC was used as the positive control, while media alone was added to cells as the untreated control. Three days later the culture medium was replaced with fresh medium containing the appropriately diluted drug. Six days following the initial administration of the test compound, the cell culture supernatant was collected, treated with pronase and DNAse and then used in a real-time quantitative TaqMan PCR assay for direct measurement of HBV DNA copies using an ABI Prism 7900 sequence detection system (Applied Biosystems, Foster City, Calif.).
The antiviral activity of each test compound was calculated by comparing its HBV DNA copies against that of the untreated control cells (100%) to derive percent inhibition level. After removing the supernatant, the remaining cells were subject to CellTiter 96 Aqueous One (Promega, Madison, Wis.) solution cell proliferation assay (MTS-based) to measure cell viability. Cytotoxicity of the compound was determined by comparing its cell viability with that of the untreated cell control to derive percentage of the cell control.

[4] = plasma pharmacokinetics after IV administration; format: in vivo, Male CD-1 mice; details: single IV dose 5 mg/kg
Method: (§3) [drawing 435] are described below. Plasma concentrations were measured in mice after oral and IV administration. Both oral and IV doses were formulated in saline. Male CD-1 mice were dosed after an overnight fast and fed 4 hours post-dose.
A single IV dose of 139 was administered to male CD-1 mice intravenously at 5 mg/kg (dose volume of 3 mL/kg). The plasma concentration of 139 was measured at 0 min, 5 min, 15 min, 30 min, 1 h, 3 h, 6 h, and 12 h time points. A liquid-liquid extraction procedure was used to isolate the analyte and internal standard from mice plasma. After the extract was dried and reconstituted, the sample was directly injected into a liquid chromatography/mass spectrometry (LC/MS) system. HPLC conditions were as follows: • HPLC System: Shimadzu SCL-10 System • Analytical Column: Aquasil C18 5 μm 50×2.1 mm column. • Column Temperature: Ambient temperature • Autosampler Temperature: Ambient temperature • Mobile Phase A) 10 mM Ammonium formate in water (pH4). • B) Acetonitrile. • Flow Rate: 0.6 mL/min • Injection Volume: 4 μL • Gradient:
• Mass spectrometry conditions were as follows: • Instrument: ABI Sciex API 4000 • Mode: ESI+ • Experiment: MRM (multiple reaction monitoring) • Transitions: 139: m/z 480.1→127.1 (Rt=3.8 minute)

[5] = plasma pharmacokinetics after oral administration; format: in vivo, Male CD-1 mice
Method: as §3
[…] The plasma concentration of 139 was measured at 0 min, 30 min, 1 h, 3 h, 6 h, 12 h, and 24 h time points. As discussed above for the i.v. administration, the analyte was extracted and analyzed by HPLC/mass spec.

c-Src 3T3 cells = test: BrdU cell growth inhibition, c-Src 3T3; format: cell-based, mouse; details: Mus musculus, NIH3T3, read-out: c-Src 3T3 Growth, % of Control Mean, n = 3
Method: (§4) The GI50s for several of the compounds of the invention were assayed as described herein.
The cells were routinely cultured in DMEM supplemented with Fetal Bovine Serum (2.0% v/V), L-glutamine (2 mM) and Sodium Pyruvate (1 mM).
(§5) In the BrdU Assay for cell growth inhibition, quantitation of cell proliferation was based on the measurement of BrdU incorporation during DNA synthesis. The Cell Proliferation ELISA BrdU assay kit (colorimetric) was obtained from Roche Applied Science and performed as per vendor instructions.
(§6) The growth inhibition (GI) is determined from the formula GI=(T0−Tn×100/T0−CONn) where T0 is the BrdU growth of untreated cells at time “0”, Tn is the BrdU growth of treated cells at day “n” and CONn is the control BrdU growth of control cells at day “n”. The GI50 was extrapolated and the data plotted using XL-Fit 4.0 software.
(§7) For 96 well culture plate experiments, c-Src 3T3 medium was supplemented with 10 mM HEPES buffer. HT-29 cells were seeded in standard tissue culture 96-well plates and c-Src 3T3 cells were seeded in 96-well plates coated with Poly-D-lysine (BIOCOAT™). To increase CO2 diffusion, c-Src 3T3 96-well plates were incubated with their lids raised by ˜2 mm using sterile rubber caps.
(§8) Samples were reconstituted in DMSO at 20 mM and intermediate dilutions made using DMEM containing 10% FBS. […] Plates were assayed for BrdU and the data analyzed as above for GI50.
(§9) All compounds were initially prepared as 20 mM DMSO stock solutions and then diluted into buffer for the in vitro tumor growth assays. NG means no cell growth beyond the control and T means the number of cells in the drug treated wells was less than in the control (i.e. net cell loss).

HT29 cell line = test: BrdU cell growth inhibition, HT29; format: cell-based, human; details: Homo sapiens, HT-29, read-out: HT-29 Growth, % of Control Mean, n = 3
Method: as §4
The HT29 cell line is a NCI standard human colon carcinoma cell line.
as §5, §6, §7, §8, §9, §1

[6] = male, CD-1, mouse, single oral dose 25 mg/kg

C#Cc1cccc(Nc2ncnc3cc(OCCOC)c(OCCOC)cc23)c1 [Tarceva, erlotinib, reference compound]
GI50 [1]: 1740 nM

Cn1nnc2c(C(N)=O)ncn2c1=O [Temodar ®, Temodar®, reference compound]
Average weight at endpoint [2]: 13.3 g | Median survival (GL261 glioma cells): 29 | survival Range (GL261 glioma cells): 26-29

Nc1ccn([C@@H]2CS[C@H](CO)O2)c(=O)n1 [Compound 3TC, 3TC, reference compound]
Antiviral Activity Percent inhibition of cell control [3]: 92.0% | Interpretation [3]: Active

CN1CCN(CCOc2ccc(-c3ccc(CC(=O)NCc4cccc(F)c4)cc3)c(F)c2)CC1 [Compound 139, 2-(2′-fluoro-4′-(2-(4-methylpiperazin-1-yl)ethoxy)biphenyl-4-yl)-N-(3-fluorobenzyl)acetamide]
concentration at 5 min ([4]; male, CD-1, mouse, plasma, iv, 5 mg/kg, 5 min, read-out: Plasma Concentrations, Group A, B, C): 1200 ng/mL | concentration at 5 min ([4]; male, CD-1, mouse, plasma, iv, 5 mg/kg, 5 min, read-out: Plasma Concentrations, Mean): 1250 ng/mL | concentration at 15 min ([4]; male, CD-1, mouse, plasma, iv, 5 mg/kg, 15 min, read-out: Plasma Concentrations, Group A, B, C): 273 ng/mL | concentration at 15 min ([4]; male, CD-1, mouse, plasma, iv, 5 mg/kg, 15 min, read-out: Plasma Concentrations, Mean): 329 ng/mL | concentration at 30 min ([4]; male, CD-1, mouse, plasma, iv, 5 mg/kg, 30 min, read-out: Plasma Concentrations, Group A, B, C): 500 ng/mL | concentration at 30 min ([4]; male, CD-1, mouse, plasma, iv, 5 mg/kg, 30 min, read-out: Plasma Concentrations, Mean): 382 ng/mL | concentration at 1 h ([4]; male, CD-1, mouse, plasma, iv, 5 mg/kg, 1 hr, read-out: Plasma Concentrations, Group A, B, C): 186 ng/mL | concentration at 1 h ([4]; male, CD-1, mouse, plasma, iv, 5 mg/kg, 1 hr, read-out: Plasma Concentrations, Mean): 178 ng/mL | concentration at 3 h ([4]; male, CD-1, mouse, plasma, iv, 5 mg/kg, 3 hr, read-out: Plasma Concentrations, Mean): 207 ng/mL | concentration at 6 h ([4]; male, CD-1, mouse, plasma, iv, 5 mg/kg, 6 hr, read-out: Plasma Concentrations, Mean): 43.2 ng/mL | concentration at 12 h ([4]; male, CD-1, mouse, plasma, iv, 5 mg/kg, BLQ = 0, read-out: Plasma Concentrations, Mean): 3.67 ng/mL | concentration at 12 h ([4]; male, CD-1, mouse, plasma, iv, 5 mg/kg, read-out: Plasma Concentrations, Group A, B, C): 11 ng/mL | AUC(0-inf) ([4]; male, CD-1, mouse, plasma): 1420 ng·h/mL | AUC(0-t) ([4]; male, CD-1, mouse, plasma): 1410 ng·h/mL | C0 ([4]; male, CD-1, mouse, plasma): 2420 ng/mL | MRT ([4]; male, CD-1, mouse, plasma): 2.3 h | clearance ([4]; male, CD-1, mouse, plasma): 58.7 mL/min/kg | half-life ([4]; male, CD-1, mouse, plasma, estimated from 3, 6, 12 hours): 1.6 h | Vd ([4]; male, CD-1, mouse, plasma, read-out: Vss): 8.15 L/kg | % AUC Extrap ([4]; plasma): 0.6% | AUC0-∞/Dose ([4]; plasma): 284.1 kg·ng·h/mL/mg | Plasma Concentrations, Group A, B, C ([4]; 5 min, 5 mg/kg): 1287 ng/mL and 1260 ng/mL | Plasma Concentrations, Group A, B, C ([4]; 15 min, 5 mg/kg): 306 ng/mL and 407 ng/mL | Plasma Concentrations, Group A, B, C ([4]; 30 min, 5 mg/kg): 367 ng/mL and 279 ng/mL | Plasma Concentrations, Group A, B, C ([4]; 1 hr, 5 mg/kg): 210 ng/mL and 137 ng/mL | bioavailability ([5]; male, CD-1, mouse, (Mean AUC0-∞ oral/oral dose)/(Mean AUC0-∞ IV/IV dose)×100%, 25 mg/kg oral, 5 mg/kg IV, read-out: Estimated bioavailability): 34.4% | concentration at 30 min ([5]; male, CD-1, mouse, po, 25 mg/kg, single PO dose 25 mg/kg, 30 min, read-out: Plasma Concentrations, Mean): 318 ng/mL | concentration at 1 h ([5]; male, CD-1, mouse, po, 25 mg/kg, single PO dose 25 mg/kg, 1 hr, read-out: Plasma Concentrations, Mean): 142 ng/mL | concentration at 3 h ([5]; male, CD-1, mouse, po, 25 mg/kg, single PO dose 25 mg/kg, 3 hr, read-out: Plasma Concentrations, Mean): 330 ng/mL | concentration at 6 h ([5]; male, CD-1, mouse, po, 25 mg/kg, single PO dose 25 mg/kg, 6 hr, read-out: Plasma Concentrations, Mean): 119 ng/mL | concentration at 12 h ([5]; male, CD-1, mouse, po, 25 mg/kg, single PO dose 25 mg/kg, 12 hr, read-out: Plasma Concentrations, Mean): 56.6 ng/mL | concentration at 24 h ([5]; male, CD-1, mouse, po, 25 mg/kg, single PO dose 25 mg/kg, BLQ = 0, read-out: Plasma Concentrations, Mean): 15.6 ng/mL | concentration at 24 h ([5]; male, CD-1, mouse, po, 25 mg/kg, single PO dose 25 mg/kg, read-out: Plasma Concentrations, Group A, B, C): 31.2 ng/mL | AUC(0-inf) [5, 6]: 2440 ng·h/mL | AUC(0-t) [5, 6]: 2300 ng·h/mL | Cmax [5, 6]: 330 ng/mL | MRT [5, 6]: 7.7 h | Tmax [5, 6]: 3 h | half-life ([5]; male, CD-1, mouse, single oral dose 25 mg/kg, estimated from 6, 12, 24 hours): 6.2 h | % AUC Extrap ([5]; single oral dose 25 mg/kg): 5.7% | AUC0-∞/Dose ([5]; single oral dose 25 mg/kg): 97.6 kg·ng·h/mL/mg

CCOc1ccc(-c2ccc(CC(=O)NCc3cc(F)cc(OCCN4CCOCC4)c3)nc2)cc1 [KX2-378]
activity at 0.1 µM (c-Src 3T3 cells; 100 nM): 122% | activity at 1 µM (c-Src 3T3 cells; 1.0 uM): 107% | activity at 10 µM (c-Src 3T3 cells; 10 uM): 48% | activity at 0.05 µM (HT29 cell line; 50 nM): 88% | activity at 0.5 µM (HT29 cell line; 500 nM): 61% | activity at 5 µM (HT29 cell line; 5 uM): < 0%
